Measurements: patent publication US20240132519A1, “NRF2-ACTIVATING COMPOUND” (SENJU PHARMACEUTICAL CO., LTD., priority 2020, published 2024)

Each compound was assayed against binding between NRF2 and KEAP1 (Homo sapiens (Human), UniProt Q14145) (assay: Binding assay: inhibition of binding between NRF2 and KEAP1 by BRET (NanoLuc-NRF2 and KEAP1-HaloTag cell lysates)). Settings: Test Example 1-1; NRF2-KEAP1 BRET; N=2.
Experimental: The inhibitory activity of each compound on the binding between NRF2 and KEAP1 was measured by bioluminescence resonance energy transfer (BRET) assay. A plasmid having human NRF2 (Original Clone ID: ha01449s1) sequence fused with NanoLuc (19 kDa, Promega) at the N-terminal was transduced into HCE-T cells (immortalized human corneal epithelial cells) using FuGENE HD (Promega). 48 hours after transduction, the cell lysate was collected and used as an NRF2-expressing cell lysate. A plasmid having human KEAP1 (Original Clone ID: cs00328) sequence fused with HaloTag (33 kDa, Promega) at the C-terminal was transduced into HCE-T cells using FuGENE HD (Promega). After 24 hours, HaloTag Nano BRET 618 Ligand (Promega) was added to the medium. The cell lysate cultured for 24 hours after the addition was used as a KEAP1-expressing cell lysate.
The NRF2-expressing cell lysate and the KEAP1-expressing cell lysate were adjusted so that the luminescence and fluorescence intensities per well were constant. Tables 1 and 2 show the formulation of each reaction solution.
Each test substance at a concentration 100 times higher than the test concentration was dissolved in dimethylsulfoxide for adjustment. 49 μL of KEAP1 solution was added to a 96-well polystyrene microplate (FALCON) to which 1 μL of each test substance solution was added, followed by incubation for 15 minutes. Then, 50 μL of NRF2 solution was added to the above solution, followed by incubation for 1 hour. To measure the binding between NRF2 and KEAP1, NanoBRET Nano-Glo Substrate (Promega) diluted with Opti-Mem (Thermo Fisher Scientific) was added, followed by shaking for 30 seconds. Then, luminescence and fluorescence were measured using the GloMax Discover System (Promega). A 495-nm short pass filter and a 600-nm long pass filter were respectively used to measure donor and acceptor emission values. A value obtained by dividing the acceptor emission value by the donor emission value was regarded as BRET value. A BRET value when the compound was not added, and a BRET value when the KEAP1 solution was not added were respectively used as binding rates of 100% and 0%, and the binding rate when the compound was added was calculated. Further, using this binding rate, the 50% binding inhibitory activity concentration (IC50) was calculated from the following formula. The test was performed at N=2.
IC50(M)=10^(LOG(A/B)×(50−C)/(D−C)+LOG(B)) • A: higher concentration out of 2 close concentrations across the inhibition rate of 50% • B: lower concentration out of 2 close concentrations across the inhibition rate of 50% • C: inhibition rate at B • D: inhibition rate at A
Compounds A1/A2, compounds B1/B2, compounds C1/C2, and compounds D1/D2 were used as test substances. Binding assay and reporter assay were performed as in Test Example 1-1 and Test Example 1-2.

binding between NRF2 and KEAP1, sequence (Q14145 whole entry, the tested form may be a part): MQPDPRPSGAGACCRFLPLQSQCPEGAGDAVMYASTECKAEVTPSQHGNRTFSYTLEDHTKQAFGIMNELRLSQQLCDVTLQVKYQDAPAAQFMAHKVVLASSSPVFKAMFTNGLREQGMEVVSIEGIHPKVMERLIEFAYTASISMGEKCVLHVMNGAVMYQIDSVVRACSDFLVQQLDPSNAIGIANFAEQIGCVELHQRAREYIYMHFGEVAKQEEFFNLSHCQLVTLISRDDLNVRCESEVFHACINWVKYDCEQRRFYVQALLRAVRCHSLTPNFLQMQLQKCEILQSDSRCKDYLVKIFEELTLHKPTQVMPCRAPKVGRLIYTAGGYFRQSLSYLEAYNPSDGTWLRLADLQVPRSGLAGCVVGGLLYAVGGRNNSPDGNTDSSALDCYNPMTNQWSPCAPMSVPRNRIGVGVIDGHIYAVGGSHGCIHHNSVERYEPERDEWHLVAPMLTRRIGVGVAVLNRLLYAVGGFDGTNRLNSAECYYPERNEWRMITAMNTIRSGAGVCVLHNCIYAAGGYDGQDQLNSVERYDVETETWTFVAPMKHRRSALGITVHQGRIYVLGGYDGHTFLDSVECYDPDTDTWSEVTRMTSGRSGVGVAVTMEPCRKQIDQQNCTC

In order of falling IC50:
1. CC[C@@H]1CN(Cc2cc(C(CC(=O)O)c3cccs3)ccc2C)S(=O)(=O)c2ccccc2O1 (stereo partly drawn) [Compound 17, 3-(3-{[(R)-4-ethyl-1,1-dioxide-3,4-dihydro-2H-benzo[b][1,4,5]oxathiazepin-2-yl]methyl}-4-methylphenyl)-3-(thiophen-2-yl)propanoic acid]  28 nM
2. 3-[5-(cyclopropanecarbonyl)thiophen-2-yl]-3-(3-{[(R)-4-ethyl-1,1-dioxide-3,4-dihydro-2H-benzo[b][1,4,5]oxathiazepin-2-yl]methyl}-4-methylphenyl)propanoic acid [Compound 20]  24 nM
3. CC[C@@H]1CN(Cc2cc(C(CC(=O)O)c3csc(C(=O)NC)c3)ccc2C)S(=O)(=O)c2ccccc2O1 (stereo partly drawn) [Compound 22, 3-(3-{[(R)-4-ethyl-1,1-dioxide-3,4-dihydro-2H-benzo[b][1,4,5]oxathiazepin-2-yl]methyl}-4-methylphenyl)-3-[5-(methylcarbamoyl)thiophen-3-yl]propanoic acid]  6.1 nM
4. CC[C@@H]1CN(Cc2cc(C(CC(=O)O)c3csc(C(C)=O)c3)ccc2C)S(=O)(=O)c2ccccc2O1 (stereo partly drawn) [Compound 15, 3-(5-acetylthiophen-3-yl)-3-(3-{[(R)-4-ethyl-1,1-dioxide-3,4-dihydro-2H-benzo[b][1,4,5]oxathiazepin-2-yl]methyl}-4-methylphenyl)propanoic acid]  1.4 nM
5. CC[C@@H]1CN(Cc2cc(C(CC(=O)O)c3sc(C(C)=O)cc3C)ccc2C)S(=O)(=O)c2ccccc2O1 (stereo partly drawn) [Compound 14, 3-(5-acetyl-3-methylthiophen-2-yl)-3-(3-{[(R)-4-ethyl-1,1-dioxide-3,4-dihydro-2H-benzo[b][1,4,5]oxathiazepin-2-yl]methyl}-4-methylphenyl)propanoic acid]  1.3 nM
6. CC[C@@H]1CN(Cc2cc(C(c3cc(OC)c(C(C)=O)s3)C(C)C(=O)O)ccc2C)S(=O)(=O)c2cnccc2O1 (stereo partly drawn) [Compound 51, 3-(5-acetyl-4-methoxythiophen-2-yl)-3-(3-{[(R)-4-ethyl-1,1-dioxide-3,4-dihydro-2H-pyrido[4,3-b][1,4,5]oxathiazepin-2-yl]methyl}-4-methylphenyl)-2-methylpropanoic acid]  0.41 nM
7. CC[C@@H]1CN(Cc2cc(C(c3cc(OC)c(C(C)=O)s3)C(C)(C)C(=O)O)ccc2C)S(=O)(=O)c2ccccc2O1 (stereo partly drawn) [Compound 4, 3-(5-acetyl-4-methoxythiophen-2-yl)-3-(3-{[(R)-4-ethyl-1,1-dioxide-3,4-dihydro-2H-benzo[b][1,4,5]oxathiazepin-2-yl]methyl}-4-methylphenyl)-2,2-dimethylpropanoic acid]  0.41 nM
8. CC[C@@H]1CN(Cc2cc(C(CC(=O)O)c3ccc(C(N)=O)s3)ccc2C)S(=O)(=O)c2ccccc2O1 (stereo partly drawn) [Compound 23, 3-(5-carbamoylthiophen-2-yl)-3-(3-{[(R)-4-ethyl-1,1-dioxide-3,4-dihydro-2H-benzo[b][1,4,5]oxathiazepin-2-yl]methyl}-4-methylphenyl)propanoic acid]  0.39 nM
9. CC[C@@H]1CN(Cc2cc(C(c3ccc(C(C)=O)s3)C(C)(C)C(=O)O)ccc2C)S(=O)(=O)c2cnccc2O1 (stereo partly drawn) [Compound 48, 3-(5-acetylthiophen-2-yl)-3-(3-{[(R)-4-ethyl-1,1-dioxide-3,4-dihydro-2H-pyrido[4,3-b][1,4,5]oxathiazepin-2-yl]methyl}-4-methylphenyl)-2,2-dimethylpropanoic acid]  0.39 nM
10. CC[C@@H]1CN(Cc2cc(C(CC(=O)O)c3cc(C)c(C(C)=O)s3)ccc2C)S(=O)(=O)c2ccccc2O1 (stereo partly drawn) [Compound 7, 3-(5-acetyl-4-methylthiophen-2-yl)-3-(3-{[(R)-4-ethyl-1,1-dioxide-3,4-dihydro-2H-benzo[b][1,4,5]oxathiazepin-2-yl]methyl}-4-methylphenyl)propanoic acid]  0.36 nM
11. CC[C@@H]1CN(Cc2cc(C(c3cc(F)c(C(C)=O)s3)C(C)(C)C(=O)O)ccc2C)S(=O)(=O)c2cnccc2O1 (stereo partly drawn) [Compound 49, 3-(5-acetyl-4-fluorothiophen-2-yl)-3-(3-{[(R)-4-ethyl-1,1-dioxide-3,4-dihydro-2H-pyrido[4,3-b][1,4,5]oxathiazepin-2-yl]methyl}-4-methylphenyl)-2,2-dimethylpropanoic acid]  0.31 nM
12. CC[C@@H]1CN(Cc2cc(C(CC(=O)O)c3cc(C(C)=O)cs3)ccc2C)S(=O)(=O)c2ccccc2O1 (stereo partly drawn) [Compound 10, 3-(4-acetylthiophen-2-yl)-3-(3-{[(R)-4-ethyl-1,1-dioxide-3,4-dihydro-2H-benzo[b][1,4,5]oxathiazepin-2-yl]methyl}-4-methylphenyl)propanoic acid]  0.3 nM
13. CC[C@@H]1CN(Cc2cc(C(c3ccc(C(C)=O)s3)C(C)(C)C(=O)O)ccc2C)S(=O)(=O)c2c(F)cccc2O1 (stereo partly drawn) [Compound 9, 3-(5-acetylthiophen-2-yl)-3-(3-{[(R)-4-ethyl-9-fluoro-1,1-dioxide-3,4-dihydro-2H-benzo[b][1,4,5]oxathiazepin-2-yl]methyl}-4-methylphenyl)-2,2-dimethylpropanoic acid]  0.3 nM
14. CC(=O)c1ccc(C(c2ccc(C)c(CN3C[C@@H](C)Oc4ccccc4S3(=O)=O)c2)C(C)(C)C(=O)O)s1 (stereo partly drawn) [Compound 12, 3-(5-acetylthiophen-2-yl)-2,2-dimethyl-3-(4-methyl-3-{[(R)-4-methyl-1,1-dioxide-3,4-dihydro-2H-benzo[b][1,4,5]oxathiazepin-2-yl]methyl}phenyl)propanoic acid]  0.28 nM
15. CC[C@@H]1CN(Cc2cc(C(c3cc(F)c(C(C)=O)s3)C(C)C(=O)O)ccc2C)S(=O)(=O)c2cnccc2O1 (stereo partly drawn) [Compound 52, 3-(5-acetyl-4-fluorothiophen-2-yl)-3-(3-{[(R)-4-ethyl-1,1-dioxide-3,4-dihydro-2H-pyrido[4,3-b][1,4,5]oxathiazepin-2-yl]methyl}-4-methylphenyl)-2-methylpropanoic acid]  0.27 nM
16. CC[C@@H]1CN(Cc2cc(C(c3ccc(C(C)=O)s3)C(C)(C)C(=O)O)ccc2C)S(=O)(=O)c2ccccc2O1 (stereo partly drawn) [Compound 6, 3-(5-acetylthiophen-2-yl)-3-(3-{[(R)-4-ethyl-1,1-dioxide-3,4-dihydro-2H-benzo[b][1,4,5]oxathiazepin-2-yl]methyl}-4-methylphenyl)-2,2-dimethylpropanoic acid]  0.27 nM
17. CC[C@@H]1CN(Cc2cc(C(c3ccc(C(C)=O)s3)C(C)C(=O)O)ccc2C)S(=O)(=O)c2ccccc2O1 (stereo partly drawn) [Compound 1, 3-(5-acetylthiophen-2-yl)-3-(3-{[(R)-4-ethyl-1,1-dioxide-3,4-dihydro-2H-benzo[b][1,4,5]oxathiazepin-2-yl]methyl}-4-methylphenyl)-2-methylpropanoic acid]  0.24 nM
18. CC[C@@H]1CN(Cc2cc(C(CC(=O)O)c3ccc(C(C)=O)s3)ccc2C)S(=O)(=O)c2ccccc2O1 (stereo partly drawn) [Compound 5, 3-(5-acetylthiophen-2-yl)-3-(3-{[(R)-4-ethyl-1,1-dioxide-3,4-dihydro-2H-benzo[b][1,4,5]oxathiazepin-2-yl]methyl}-4-methylphenyl)propanoic acid]  0.23 nM
19. CC[C@@H]1CN(Cc2cc(C(c3cc(F)c(C(C)=O)s3)C(C)(C)C(=O)O)ccc2C)S(=O)(=O)c2ccccc2O1 (stereo partly drawn) [Compound 11, 3-(5-acetyl-4-fluorothiophen-2-yl)-3-(3-{[(R)-4-ethyl-1,1-dioxide-3,4-dihydro-2H-benzo[b][1,4,5]oxathiazepin-2-yl]methyl}-4-methylphenyl)-2,2-dimethylpropanoic acid]  0.23 nM
20. CC[C@@H]1CN(Cc2cc(C(c3cc(OC)c(C(C)=O)s3)C(C)(C)C(=O)O)ccc2C)S(=O)(=O)c2cnccc2O1 (stereo partly drawn) [Compound 50, 3-(5-acetyl-4-methoxythiophen-2-yl)-3-(3-{[(R)-4-ethyl-1,1-dioxide-3,4-dihydro-2H-pyrido[4,3-b][1,4,5]oxathiazepin-2-yl]methyl}-4-methylphenyl)-2,2-dimethylpropanoic acid]  0.19 nM
21. CC[C@@H]1CN(Cc2cc(C(c3cc(C(C)=O)cs3)C(C)C(=O)O)ccc2C)S(=O)(=O)c2ccccc2O1 (stereo partly drawn) [Compound 3, 3-(4-acetylthiophen-2-yl)-3-(3-{[(R)-4-ethyl-1,1-dioxide-3,4-dihydro-2H-benzo[b][1,4,5]oxathiazepin-2-yl]methyl}-4-methylphenyl)-2-methylpropanoic acid]  0.17 nM
